Test results: ChEMBL document CHEMBL4834465, “Potent SARS-CoV-2 mRNA Cap Methyltransferase Inhibitors by Bioisosteric Replacement of Methionine in SAM Cosubstrate” (ACS Med Chem Lett, 2021); call rule not given here

Tests used:
[1] = mouse, balb/3t3 clone a31, 48 h
A549 = details: human, a549, 48 h
HepG2 = details: human, hepg2, 48 h
[2] = molecular target: T1, Glycine N-methyltransferase (Homo sapiens, UniProt Q14749); assay: Inhibition of N-terminal His-tagged human recombinant Glycine-N-methyltransferase (1 to 295 residues) expressed in Escherichia coli using glycine and SAM as substrate incubated for 30 mins by HTRF assay
T1 sequence (Q14749 whole entry): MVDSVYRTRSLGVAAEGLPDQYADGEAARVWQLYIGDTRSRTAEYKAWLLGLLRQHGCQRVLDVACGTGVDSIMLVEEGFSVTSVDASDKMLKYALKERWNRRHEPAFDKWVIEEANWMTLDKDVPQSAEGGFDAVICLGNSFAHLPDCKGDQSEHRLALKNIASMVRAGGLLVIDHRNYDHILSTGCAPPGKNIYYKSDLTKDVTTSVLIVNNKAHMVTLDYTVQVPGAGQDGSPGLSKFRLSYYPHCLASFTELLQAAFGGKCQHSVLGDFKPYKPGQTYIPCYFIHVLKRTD

For `Nc1ncnc2c1ncn2[C@@H]1O[C@H](CSc2cccc(C(=O)O)c2)[C@@H](O)[C@H]1O`, the CC50 [1] was over 200 µM, the CC50 (A549) was over 200 µM and the CC50 (HepG2) was over 100 µM. The IC50 ([2]; read-out: IC50) was 0.15 µM.

In the case of `Nc1ncnc2c1ncn2[C@@H]1O[C@H](CSCCc2c[nH]nn2)[C@@H](O)[C@H]1O`, the CC50 [1] is reported as over 200 µM, the CC50 (A549) is reported as over 200 µM and the CC50 (HepG2) is reported as over 100 µM. It also gave an IC50 ([2]; read-out: IC50) of 0.39 µM.

`Nc1ncnc2c1ncn2[C@@H]1O[C@H](CNCCc2ccccc2)[C@@H](O)[C@H]1O` gave an IC50 ([2]; read-out: IC50) of 207 µM.

For `Nc1ncnc2c1ncn2[C@@H]1O[C@H](CNCc2cc[nH]n2)[C@@H](O)[C@H]1O`, the IC50 [2] was “Not Active”.

Molecule `Nc1ncnc2c1ncn2[C@@H]1O[C@H](C(=O)N2CCN(CC(=O)O)CC2)[C@@H](O)[C@H]1O` has an IC50 ([2]; read-out: IC50) of 240 µM.

`Nc1ncnc2c1ncn2[C@@H]1O[C@H](C[C@@H](N)CC[C@H](N)C(=O)O)[C@@H](O)[C@H]1O` [SINEFUNGIN] gave a CC50 [1] of 99.2 µM, a CC50 (A549) of 72.9 µM and a CC50 (HepG2) of over 100 µM.

`Nc1ncnc2c1ncn2[C@@H]1O[C@H](CSCc2cc(O)[nH]n2)[C@@H](O)[C@H]1O` showed a CC50 [1] of over 200 µM, a CC50 (A549) of over 200 µM and a CC50 (HepG2) of over 100 µM. For the same molecule, the IC50 ([2]; read-out: IC50) was 0.64 µM.

In the case of `Nc1ncnc2c1ncn2[C@@H]1O[C@H](CSCc2ccc3ccccc3c2)[C@@H](O)[C@H]1O`, the CC50 [1] is reported as over 200 µM, the CC50 (A549) is reported as over 200 µM and the CC50 (HepG2) is reported as over 100 µM. For the same molecule, the IC50 ([2]; read-out: IC50) was 0.26 µM.

`Nc1ncnc2c1ncn2[C@@H]1O[C@H](C(=O)Nc2cccc(C(=O)O)c2)[C@@H](O)[C@H]1O` gave a CC50 [1] of over 200 µM, a CC50 (A549) of over 200 µM and a CC50 (HepG2) of over 100 µM. For the same molecule, the IC50 ([2]; read-out: IC50) was 2.2 µM.

`Nc1ncnc2c1ncn2[C@@H]1O[C@H](CSCc2cccc(C(=O)O)c2)[C@@H](O)[C@H]1O` showed a CC50 [1] of over 200 µM, a CC50 (A549) of over 200 µM and a CC50 (HepG2) of over 100 µM. It also gave an IC50 ([2]; read-out: IC50) of 0.0086 µM.

Molecule `Nc1ncnc2c1ncn2[C@@H]1O[C@H](CN(CCCC(=O)O)CCc2ccccc2)[C@@H](O)[C@H]1O` has a CC50 [1] of over 200 µM, a CC50 (A549) of over 200 µM and a CC50 (HepG2) of over 100 µM. The IC50 ([2]; read-out: IC50) was 2.7 µM.
